Data from ChEMBL document CHEMBL4390699, “Design, synthesis and biological evaluation of novel antitumor spirodihydrothiopyran-oxindole derivatives” (Bioorg Med Chem Lett, 2019).

What was measured:
A549 [1] = assay: Antiproliferative activity against human A549 cells assessed as inhibition of cell growth at 10 uM measured after 24 hrs by CCK8 assay relative to control; assay type: functional; settings: A549, 24 h, read-out: GI
A549 [2] = assay: Antiproliferative activity against human A549 cells measured after 24 hrs by CCK8 assay; assay type: functional, cell-based; settings: A549, 24 h
MCF7 [3] = assay: Antiproliferative activity against human MCF7 cells assessed as inhibition of cell growth at 10 uM measured after 24 hrs by CCK8 assay relative to control; assay type: functional; settings: MCF7, 24 h, read-out: GI
MCF7 [4] = assay: Antiproliferative activity against human MCF7 cells measured after 24 hrs by CCK8 assay; assay type: functional, cell-based; settings: MCF7, 24 h
HCT-116 [5] = assay: Antiproliferative activity against human HCT116 cells assessed as inhibition of cell growth at 10 uM measured after 24 hrs by CCK8 assay relative to control; assay type: functional; settings: HCT-116, 24 h, read-out: GI
HCT-116 [6] = assay: Antiproliferative activity against human HCT116 cells measured after 24 hrs by CCK8 assay; assay type: functional, cell-based; settings: HCT-116, 24 h
[7] = biological target: E3 ubiquitin-protein ligase Mdm2 (Homo sapiens, UniProt Q00987); assay: Inhibition of PMDM6-F probe binding to MDM2 (1 to 118 residues) (unknown origin) preincubated for 30 mins followed by PMDM6-F addition and measured after 1 hr fluorescence polarization assay
A549 [8] = assay: Cell cycle arrest in human A549 cells assessed as increase in accumulation at G0/G1-phase measured after 24 hrs by DNA-staining solution based flow cytometry; assay type: functional
A549 [9] = assay: Cell cycle arrest in human A549 cells assessed as decrease in accumulation at S-phase measured after 24 hrs by DNA-staining solution based flow cytometry; assay type: functional
A549 [10] = assay: cells; settings: Homo sapiens, A549, 48 h, read-out: Activity
Description: Induction of apoptosis in human A549 cells assessed as viable cells at 5 uM measured after 48 hrs by annexin V-FITC/propidium iodide staining based flow cytometry (Rvb = 92.9%)

A549 [11] = assay: cells; settings: Homo sapiens, A549, 48 h, read-out: Activity; remark: listed apart in the source
Description: Induction of apoptosis in human A549 cells assessed as viable cells at 10 uM measured after 48 hrs by annexin V-FITC/propidium iodide staining based flow cytometry (Rvb = 92.9%)

HUVEC = assay: Cytotoxicity against HUVEC measured after 24 hrs by CCK8 assay; assay type: cell-based; settings: Homo sapiens
A549 [12] = assay: Cell cycle arrest in human A549 cells assessed as decrease in accumulation at G2/M-phase measured after 24 hrs by DNA-staining solution based flow cytometry; assay type: functional

Sequence of E3 ubiquitin-protein ligase Mdm2 (Q00987 whole entry, the tested form may be a part): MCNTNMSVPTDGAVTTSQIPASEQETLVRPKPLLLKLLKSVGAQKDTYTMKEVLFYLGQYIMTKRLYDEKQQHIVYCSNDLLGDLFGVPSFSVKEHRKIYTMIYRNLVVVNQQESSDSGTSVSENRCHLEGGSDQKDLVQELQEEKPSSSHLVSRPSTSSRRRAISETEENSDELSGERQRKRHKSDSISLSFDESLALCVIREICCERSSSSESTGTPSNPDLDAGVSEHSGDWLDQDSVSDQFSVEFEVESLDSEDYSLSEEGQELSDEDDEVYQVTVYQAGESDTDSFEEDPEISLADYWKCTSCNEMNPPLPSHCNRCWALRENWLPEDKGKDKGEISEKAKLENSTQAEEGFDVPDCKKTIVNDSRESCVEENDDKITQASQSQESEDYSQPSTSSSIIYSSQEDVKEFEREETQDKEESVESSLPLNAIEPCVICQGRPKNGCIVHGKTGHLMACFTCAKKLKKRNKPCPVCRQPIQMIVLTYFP

O=C(C1=CC[C@@H](c2ccccc2)[C@@]2(S1)C(=O)Nc1ccccc12)c1ccccc1
inhibition of growth at 10 µM (A549 [1]): 57.6%
IC50 (A549 [2]): 6.3 µM
inhibition of growth at 10 µM (MCF7 [3]): 51.7%
IC50 (MCF7 [4]): 10.7 µM
inhibition of growth at 10 µM (HCT-116 [5]): 87.6%
IC50 (HCT-116 [6]): 9.4 µM

O=C(C1=CC[C@@H](c2ccccc2)[C@@]2(S1)C(=O)Nc1ccc(F)cc12)c1ccccc1
inhibition of growth at 10 µM (A549 [1]): 74.2%
IC50 (A549 [2]): 4.3 µM
inhibition of growth at 10 µM (MCF7 [3]): 63.9%
IC50 (MCF7 [4]): 5.5 µM
inhibition of growth at 10 µM (HCT-116 [5]): 88.4%
IC50 (HCT-116 [6]): 9.9 µM

COc1ccc(C(=O)C2=CC[C@@H](c3ccccc3)[C@@]3(S2)C(=O)Nc2cccc(Br)c23)cc1
inhibition of growth at 10 µM (A549 [1]): 74.3%
IC50 (A549 [2]): 6 µM
inhibition of growth at 10 µM (MCF7 [3]): 36.9%
inhibition of growth at 10 µM (HCT-116 [5]): 68.4%
IC50 (HCT-116 [6]): 8.4 µM

COc1ccc(C(=O)C2=CC[C@@H](c3ccc([N+](=O)[O-])cc3)[C@@]3(S2)C(=O)Nc2cccc(Br)c23)cc1
inhibition of growth at 10 µM (A549 [1]): 73.9%
IC50 (A549 [2]): 13.9 µM
inhibition of growth at 10 µM (MCF7 [3]): 28.1%
inhibition of growth at 10 µM (HCT-116 [5]): 48.1%

O=C(C1=CC[C@@H](c2ccccc2)[C@@]2(S1)C(=O)Nc1cc(F)ccc12)c1ccccc1
inhibition of growth at 10 µM (A549 [1]): 66%
IC50 (A549 [2]): 6.2 µM
inhibition of growth at 10 µM (MCF7 [3]): 23.9%
inhibition of growth at 10 µM (HCT-116 [5]): 45.1%

COc1ccc(C(=O)C2=CC[C@@H](c3ccc(OC)cc3)[C@@]3(S2)C(=O)Nc2cccc(Br)c23)cc1
inhibition of growth at 10 µM (A549 [1]): 40.9%
inhibition of growth at 10 µM (MCF7 [3]): 25.9%
inhibition of growth at 10 µM (HCT-116 [5]): 14.3%

O=C(C1=CC[C@@H](c2ccccc2)[C@@]2(S1)C(=O)Nc1cccc(Br)c12)c1ccco1
inhibition of growth at 10 µM (A549 [1]): 87.1%
IC50 (A549 [2]): 4.5 µM
inhibition of growth at 10 µM (MCF7 [3]): 92.8%
IC50 (MCF7 [4]): 4.8 µM
inhibition of growth at 10 µM (HCT-116 [5]): 92.1%
IC50 (HCT-116 [6]): 1.9 µM
Ki [7]: 43.8 µM

O=C(C1=CC[C@@H](c2ccc(F)cc2)[C@@]2(S1)C(=O)Nc1cccc(Br)c12)c1ccccc1
inhibition of growth at 10 µM (A549 [1]): 84.4%
IC50 (A549 [2]): 4.9 µM
inhibition of growth at 10 µM (MCF7 [3]): 21.9%
inhibition of growth at 10 µM (HCT-116 [5]): 44.1%

CCC[C@@H]1CC=C(C(=O)c2ccc(OC)cc2)S[C@@]12C(=O)Nc1cccc(Br)c12
inhibition of growth at 10 µM (A549 [1]): 44%
inhibition of growth at 10 µM (MCF7 [3]): 19.8%
inhibition of growth at 10 µM (HCT-116 [5]): 22.7%

O=C(C1=CC[C@@H](c2ccccc2)[C@@]2(S1)C(=O)Nc1cccc(Cl)c12)c1ccccc1
inhibition of growth at 10 µM (A549 [1]): 65.4%
IC50 (A549 [2]): 9.9 µM
inhibition of growth at 10 µM (MCF7 [3]): 43.9%
inhibition of growth at 10 µM (HCT-116 [5]): 48.8%
IC50 (HCT-116 [6]): 9.9 µM

O=C(C1=CC[C@@H](c2ccc(Br)cc2)[C@@]2(S1)C(=O)Nc1cccc(Br)c12)c1ccccc1
inhibition of growth at 10 µM (A549 [1]): 88.1%
IC50 (A549 [2]): 1.5 µM
inhibition of growth at 10 µM (MCF7 [3]): 52.7%
IC50 (MCF7 [4]): 8.8 µM
inhibition of growth at 10 µM (HCT-116 [5]): 86%
IC50 (HCT-116 [6]): 5.9 µM

O=C(C1=CC[C@@H](c2ccc(F)cc2)[C@@]2(S1)C(=O)Nc1ccccc12)c1ccccc1
inhibition of growth at 10 µM (A549 [1]): 72.3%
IC50 (A549 [2]): 6.3 µM
inhibition of growth at 10 µM (MCF7 [3]): 58.8%
IC50 (MCF7 [4]): 14.1 µM
inhibition of growth at 10 µM (HCT-116 [5]): 91.1%
IC50 (HCT-116 [6]): 2 µM

COc1ccc(C(=O)C2=CC[C@@H](c3ccc(Br)cc3)[C@@]3(S2)C(=O)Nc2cccc(Br)c23)cc1
inhibition of growth at 10 µM (A549 [1]): 19%
inhibition of growth at 10 µM (MCF7 [3]): 18.5%
inhibition of growth at 10 µM (HCT-116 [5]): 10.8%

O=C(C1=CC[C@@H](c2ccccc2)[C@@]2(S1)C(=O)Nc1cc(Br)ccc12)c1ccccc1
inhibition of growth at 10 µM (A549 [1]): 67.6%
IC50 (A549 [2]): 4.8 µM
inhibition of growth at 10 µM (MCF7 [3]): 54.5%
IC50 (MCF7 [4]): 10.1 µM
inhibition of growth at 10 µM (HCT-116 [5]): 80%
IC50 (HCT-116 [6]): 9.6 µM

O=C(C1=CC[C@@H](c2ccc(Cl)cc2)[C@@]2(S1)C(=O)Nc1ccccc12)c1ccccc1
inhibition of growth at 10 µM (A549 [1]): 72.5%
IC50 (A549 [2]): 3.9 µM
inhibition of growth at 10 µM (MCF7 [3]): 72.5%
IC50 (MCF7 [4]): 8.5 µM
inhibition of growth at 10 µM (HCT-116 [5]): 89.1%
IC50 (HCT-116 [6]): 2.8 µM

COc1ccc(C2=N[C@H](c3ccc(Cl)cc3)[C@H](c3ccc(Cl)cc3)N2C(=O)N2CCNC(=O)C2)c(OC(C)C)c1
inhibition of growth at 10 µM (A549 [1]): 47%
IC50 (A549 [2]): 2.4 µM
inhibition of growth at 10 µM (MCF7 [3]): 32.8%
IC50 (MCF7 [4]): 12.1 µM
inhibition of growth at 10 µM (HCT-116 [5]): 64.4%
Activity (A549 [8]): Dose-dependent effect
Activity (A549 [9]): Dose-dependent effect
viability at 5 µM (A549 [10]): 45.9%
viability at 10 µM (A549 [11]): 44.1%

O=C(C1=CC[C@@H](c2ccccc2)[C@@]2(S1)C(=O)Nc1cccc(Br)c12)c1ccccc1
inhibition of growth at 10 µM (A549 [1]): 78.5%
IC50 (A549 [2]): 3.1 µM
inhibition of growth at 10 µM (MCF7 [3]): 24.3%
inhibition of growth at 10 µM (HCT-116 [5]): 45%

O=C(C1=CC[C@@H](c2ccccc2)[C@@]2(S1)C(=O)Nc1cccc(Br)c12)c1ccc(Br)cc1
inhibition of growth at 10 µM (A549 [1]): 93.1%
IC50 (A549 [2]): 3.3 µM
inhibition of growth at 10 µM (MCF7 [3]): 77.7%
IC50 (MCF7 [4]): 8.2 µM
inhibition of growth at 10 µM (HCT-116 [5]): 67.3%
IC50 (HCT-116 [6]): 2.6 µM

O=C(C1=CC[C@@H](c2ccc(Br)cc2)[C@@]2(S1)C(=O)Nc1ccccc12)c1ccccc1
inhibition of growth at 10 µM (A549 [1]): 75.1%
IC50 (A549 [2]): 2.1 µM
inhibition of growth at 10 µM (MCF7 [3]): 69.4%
IC50 (MCF7 [4]): 6.8 µM
inhibition of growth at 10 µM (HCT-116 [5]): 91.9%
IC50 (HCT-116 [6]): 1.7 µM
IC50 (HUVEC): 4.03 µM
Ki [7]: 19.8 µM
Activity (A549 [8]): Dose-dependent effect
Activity (A549 [9]): Dose-dependent effect
Activity (A549 [12]): Dose-dependent effect
viability at 5 µM (A549 [10]): 35.7%
viability at 10 µM (A549 [11]): 29%

CC[C@@H]1CC=C(C(=O)c2ccc(OC)cc2)S[C@@]12C(=O)Nc1cccc(Br)c12
inhibition of growth at 10 µM (A549 [1]): 46.9%
IC50 (A549 [2]): 10.3 µM
inhibition of growth at 10 µM (MCF7 [3]): 72.9%
IC50 (MCF7 [4]): 13.3 µM
inhibition of growth at 10 µM (HCT-116 [5]): 70.8%
